Laboratory results reported in PMC6934184, “Selective DNA-PKcs inhibition extends the therapeutic index of localized radiotherapy and chemotherapy” (The Journal of Clinical Investigation, 2019).

Molecular target: T1, MAP2K6 (MKK6) S207E T211E (Homo sapiens, UniProt P52564, S207E/T211E)
T1 construct: purchased Thermo Fisher Scientific (Life Technologies) SelectScreen
Assay: SelectScreen LanthaScreen
Format: binding
Settings: read-out: % displacement
How it was run: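 SelectScreen broad panel; activity (Z'LYTE, Adapta) plus binding formats. ATP: Km app for CSF1R Z'LYTE; 10 for CAMK1 Adapta. Readout = % per kinase.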

T1 sequence (P52564 whole entry S207E/T211E): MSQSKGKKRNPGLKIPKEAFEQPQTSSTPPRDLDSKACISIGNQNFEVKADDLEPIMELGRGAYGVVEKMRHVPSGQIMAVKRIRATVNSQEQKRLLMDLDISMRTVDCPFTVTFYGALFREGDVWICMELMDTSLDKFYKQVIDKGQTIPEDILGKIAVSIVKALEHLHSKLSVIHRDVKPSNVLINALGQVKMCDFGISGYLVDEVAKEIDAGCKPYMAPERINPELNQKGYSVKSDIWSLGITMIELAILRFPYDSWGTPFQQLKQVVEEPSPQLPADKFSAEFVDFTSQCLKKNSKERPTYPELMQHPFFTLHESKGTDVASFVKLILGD

Compound: CN(C(=O)CN1CCOCC1)c1ccc2sc3c(-c4cccc5c(=O)cc(N6CC7CCC(C6)O7)oc45)cccc3c2c1 [NU5455]
- inhibition at 1 µM: -4.9%
